Assay results as given in ChEMBL document CHEMBL5726856, “ULK1 inhibitors and methods using same” (2019).

Molecular target: T1, Serine/threonine-protein kinase ULK1 (Homo sapiens, UniProt O75385)
T1 sequence (O75385 whole entry): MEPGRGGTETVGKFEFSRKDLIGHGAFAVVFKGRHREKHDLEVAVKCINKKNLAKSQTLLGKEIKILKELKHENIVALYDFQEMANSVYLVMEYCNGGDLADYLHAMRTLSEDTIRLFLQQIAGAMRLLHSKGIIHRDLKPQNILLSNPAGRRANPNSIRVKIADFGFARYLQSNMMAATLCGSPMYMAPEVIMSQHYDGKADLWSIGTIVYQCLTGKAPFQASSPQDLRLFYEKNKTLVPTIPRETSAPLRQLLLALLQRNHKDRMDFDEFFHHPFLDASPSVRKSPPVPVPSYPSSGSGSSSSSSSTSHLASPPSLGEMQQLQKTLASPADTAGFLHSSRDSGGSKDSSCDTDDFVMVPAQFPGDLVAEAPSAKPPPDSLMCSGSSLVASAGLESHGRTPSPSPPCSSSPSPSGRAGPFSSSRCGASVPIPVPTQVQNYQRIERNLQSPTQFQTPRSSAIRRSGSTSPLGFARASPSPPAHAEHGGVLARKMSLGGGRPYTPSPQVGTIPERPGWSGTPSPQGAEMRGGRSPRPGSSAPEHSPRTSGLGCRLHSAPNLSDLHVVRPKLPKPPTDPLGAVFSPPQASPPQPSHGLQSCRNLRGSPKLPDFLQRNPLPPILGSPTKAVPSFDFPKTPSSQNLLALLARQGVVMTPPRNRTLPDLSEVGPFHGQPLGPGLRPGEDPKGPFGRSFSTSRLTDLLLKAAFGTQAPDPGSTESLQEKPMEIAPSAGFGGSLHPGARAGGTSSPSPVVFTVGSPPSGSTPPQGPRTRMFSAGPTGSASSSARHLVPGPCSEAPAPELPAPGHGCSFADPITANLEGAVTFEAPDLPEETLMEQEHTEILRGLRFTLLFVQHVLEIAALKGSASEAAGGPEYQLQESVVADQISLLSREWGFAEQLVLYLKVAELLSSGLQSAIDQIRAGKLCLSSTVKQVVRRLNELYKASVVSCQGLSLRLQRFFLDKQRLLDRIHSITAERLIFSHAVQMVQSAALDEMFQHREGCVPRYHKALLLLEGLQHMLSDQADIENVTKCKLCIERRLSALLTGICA
Assay: ULK1 inhibition assay: Gamma-32P assays to measure ULK1 kinase activity were performed as previously described. Briefly, Flag ULK1 was transfected into HEK293T cells and 20 hours later treated as indicated. The immmunoprecipitate was washed in IP buffer 3 times, and washed in kinase buffer (25 mM MOPS, pH 7.5, 1 mM EGTA, 0.1 mM Na3VO4, 15 mM MgCl2,). Hot and cold ATP were added at a 100 μM final concentration. As substrates, GST or the recombinant protein GST-Atg101 purified from E. coli were used at 1 μg for each reaction. Reactions were boiled, run out on SDS page gel. The gel was dried, and imaged using PhosphoImager software. For cold assays to asses ULK1, Flag ULK1 which was transiently overexpressed and immunoprecipited from HEK293T cells. Reactions were then run out on SDS page gel, transferred to PVDF membrane and blotted for total levelsFluorescence MicroscopyVps34flox/flox MEFs were reconstituted with Flag-VPS34 and either p40FX or GFP-DFCP1. 48 hours post infection with adenovirus expressing Cre recombinase (MOI of 100), cells were plated on glass coverslips at a density of 3×10^5 cells per well in 6-well tissue culture plates. 18 h later, cells were fixed in 4% PFA in PBS for 10 minutes and permeabilized in 0.2% Triton in PBS for 10 minutes. The following primary antibodies were used: mouse anti-Myc epitope and LC3B XP antibody (2276 and 3868 respectively, Cell Signaling Technologies). Secondary antibodies were anti-rabbit Alexa488 and anti-mouse Alexa594 (Molecular Probes, 1:1000. Cells were then fixed and counter stained with DAPI. Coverslips were mounted in FluoromountG (SouthernBiothech). Images were acquired on a Zeiss Axioplan2 epifluorescence microscope coupled to the Openlab software. Confocal images of mitotracker were taken on Zeiss LSM 710 laser scanning confocal microscope. 10 random fields per condition were acquired using the 100× objective and representative images shown. Glass coverslips were mounted directly on plate with FluoromountG and images taken on Zeiss Axioplan2 epifluorescence microscope.

COc1cc(Nc2nc(Oc3cccc4c3CCCC4)ncc2Br)cc(O)c1OC
IC50: > 2 µM

FC(F)(F)c1cnc(Nc2cccc(Oc3ccccc3)c2)nc1Nc1ccc2c(c1)OCO2
IC50: > 2 µM

CNC(=O)c1ccccc1COc1nc(Nc2cc(OC)c(OC)c(OC)c2)ncc1Br
IC50: > 2 µM

O=C(C1CC1)N1CCc2cc(Nc3ncc(C(F)(F)F)c(NC4CC4)n3)ccc2C1
IC50: < 0.2 µM

COc1cc(Nc2ncc(Br)c(Oc3ccccc3CNC(C)=O)n2)cc(OC)c1OC
IC50: > 2 µM

COc1cccc(Nc2nc(Nc3ccc(OC(F)(F)F)c(Cl)c3)ncc2C(F)(F)F)c1
IC50: > 2 µM

COc1cc(Nc2ncc(Br)c(Oc3cccc4ccncc34)n2)cc(OC)c1OC
IC50: > 2 µM

COc1cc(Nc2ncc(Br)c(Oc3ccccc3CN(C)C)n2)cc(OC)c1OC
IC50: > 2 µM

Oc1nc(Nc2cnc3[nH]ccc3c2)ncc1C(F)(F)F
IC50: > 2 µM

COc1cc(Nc2ncc(Br)c(-n3nnc4ccccc43)n2)cc(OC)c1OC
IC50: > 2 µM

Nc1ccccc1Oc1nc(Nc2ccc3c(c2)OCO3)ncc1Br
IC50: < 0.2 µM

COc1cc(Nc2ncc(Br)c(Oc3cccc4cccnc34)n2)cc(OC)c1OC
IC50: > 2 µM

O=C1CCc2cc(Nc3ncc(C(F)(F)F)c(NCCCNC(=O)C4CC4)n3)ccc2N1
IC50: < 0.2 µM

FC(F)(F)c1cnc(Nc2cccc(Cl)c2Cl)nc1Nc1ccc2c(c1)OCO2
IC50: > 2 µM

CCN1CCOc2cc(Nc3ncc(C(F)(F)F)c(NC4CC4)n3)cnc21
IC50: < 0.2 µM

COCC(C)(CN(C)C)Nc1nc(Nc2ccc3c(c2)CCC(=O)N3)ncc1C(F)(F)F (configuration not stated)
IC50: > 2 µM

O=C1CCc2cc(Nc3ncc(C(F)(F)F)c(Nc4ccc5c(c4)OCO5)n3)ccc2N1
IC50: < 0.2 µM

CNC(=O)c1ccc(OC)cc1Oc1nc(Nc2cc(O)c(OC)c(OC)c2)ncc1Br
IC50: > 2 µM

CNC(=O)c1ccc(OC)cc1Oc1ncc(Br)c(Nc2cc(OC)c(OC)c(OC)c2)n1
IC50: > 2 µM

COc1ccc(Nc2ncc(C(F)(F)F)c(Nc3ccc4c(c3)OCO4)n2)cc1
IC50: < 0.2 µM

COc1cc(Nc2ncc(Br)c(Oc3cccc4c3CCCC4)n2)cc(OC)c1OC
IC50: > 2 µM

COc1cc(Nc2ncc(Br)c(Oc3ccccc3C3=NC(C)(C)CO3)n2)cc(OC)c1OC
IC50: > 2 µM

COc1cc(Nc2ncc(Cl)c(Nc3ccccc3CO)n2)cc(OC)c1OC
IC50: > 2 µM

COc1cc(Nc2ncc(Br)c(Oc3ccccc3NC(=O)C(C)(C)C)n2)cc(OC)c1OC
IC50: > 2 µM

COc1cc(Nc2ncc(C(F)(F)F)c(Oc3ccccc3N)n2)cc(OC)c1OC
IC50: < 0.2 µM

COc1cc(Nc2ncc(Br)c(Oc3cccc4[nH]nnc34)n2)cc(OC)c1OC
IC50: > 2 µM

COc1cc(Nc2ncc(Br)c(Oc3ccccc3NC(=O)C(F)(F)F)n2)cc(OC)c1OC
IC50: < 0.2 µM

COc1cc(Nc2ncc(Br)c(Oc3ccccc3NS(C)(=O)=O)n2)cc(OC)c1OC
IC50: > 2 µM

FC(F)(F)c1cnc(Nc2ccc3c(c2)CCC3)nc1Nc1ccc2c(c1)OCO2
IC50: < 0.2 µM

COc1cc(Nc2ncc(Br)c(Oc3cccc4cc[nH]c34)n2)cc(OC)c1OC
IC50: > 2 µM

COc1cc(Nc2ncc(Br)c(Oc3ccccc3[S+](C)[O-])n2)cc(OC)c1OC (configuration not stated)
IC50: > 2 µM

CCN1CCOc2cc(Nc3nc(Nc4ccc5c(c4)CCC(=O)N5)ncc3Br)cnc21
IC50: < 0.2 µM

COc1ccc(Nc2ncc(C(F)(F)F)c(NC3CC3)n2)cc1OC
IC50: < 0.2 µM

COc1cc(Nc2nc(Oc3cccc4cc[nH]c34)ncc2Br)cc(O)c1OC
IC50: > 2 µM

O=c1[nH][nH]c(=O)c2cc(Nc3ncc(C(F)(F)F)c(NC4CC4)n3)ccc12
IC50: < 0.2 µM

NC(=O)c1cccc(Nc2ncc(C(F)(F)F)c(Nc3ccc4c(c3)OCO4)n2)c1
IC50: < 0.2 µM

COc1cc(Nc2ncc(Br)c(Oc3ccccc3O)n2)cc(OC)c1OC
IC50: > 2 µM

CNC(=O)c1ccccc1Oc1nc(Nc2ccc3c(c2)CCC(=O)N3)ncc1Br
IC50: > 2 µM

FC(F)(F)c1cnc(Nc2ccc(-n3cccc3)cc2)nc1Nc1ccc2c(c1)OCO2
IC50: < 0.2 µM

COc1cc(Nc2nc(Oc3cccc4c3N(C(C)=O)CCC4)ncc2Br)cc(O)c1OC
IC50: < 0.2 µM

COc1cc(Nc2ncc(Br)c(Oc3cccc(O)c3[N+](=O)[O-])n2)cc(OC)c1OC
IC50: > 2 µM

CNC(=O)Cc1ccccc1Oc1nc(Nc2cc(OC)c(OC)c(OC)c2)ncc1Br
IC50: > 2 µM

CC(=O)Nc1ccccc1Oc1nc(Nc2ccc3c(c2)OCO3)ncc1Br
IC50: > 2 µM

COc1cc(Nc2ncc(Br)c(Oc3cccc4c3N(C(C)=O)CCC4)n2)cc(OC)c1OC
IC50: > 2 µM

O=C1CCc2cc(Nc3ncc(C(F)(F)F)c(Nc4ccccc4CO)n3)ccc2N1
IC50: < 0.2 µM

CC(=O)NNc1nc(Nc2ccc3c(c2)CCC(=O)N3)ncc1C(F)(F)F
IC50: > 2 µM

OCc1ccccc1Nc1nc(Nc2cc(F)c(F)c(F)c2)ncc1Br
IC50: > 2 µM
